For 21 molecules, Ki results are on record in US20260285855A1, “HETEROARYL DERIVATIVES AS DDRS INHIBITORS” (CHIESI FARMACEUTICI S.P.A., priority 2023, published 2026).

In general, Ki refers to the equilibrium dissociation constant of an inhibitor or competing ligand from its target.

Molecules are shown by their SMILES. Bounds are passed on as bounds.

One test concerns the target T1, DDR2 (Homo sapiens, UniProt Q16832).
T1 construct: purchased Life Technologies
T1 sequence (Q16832 22-855): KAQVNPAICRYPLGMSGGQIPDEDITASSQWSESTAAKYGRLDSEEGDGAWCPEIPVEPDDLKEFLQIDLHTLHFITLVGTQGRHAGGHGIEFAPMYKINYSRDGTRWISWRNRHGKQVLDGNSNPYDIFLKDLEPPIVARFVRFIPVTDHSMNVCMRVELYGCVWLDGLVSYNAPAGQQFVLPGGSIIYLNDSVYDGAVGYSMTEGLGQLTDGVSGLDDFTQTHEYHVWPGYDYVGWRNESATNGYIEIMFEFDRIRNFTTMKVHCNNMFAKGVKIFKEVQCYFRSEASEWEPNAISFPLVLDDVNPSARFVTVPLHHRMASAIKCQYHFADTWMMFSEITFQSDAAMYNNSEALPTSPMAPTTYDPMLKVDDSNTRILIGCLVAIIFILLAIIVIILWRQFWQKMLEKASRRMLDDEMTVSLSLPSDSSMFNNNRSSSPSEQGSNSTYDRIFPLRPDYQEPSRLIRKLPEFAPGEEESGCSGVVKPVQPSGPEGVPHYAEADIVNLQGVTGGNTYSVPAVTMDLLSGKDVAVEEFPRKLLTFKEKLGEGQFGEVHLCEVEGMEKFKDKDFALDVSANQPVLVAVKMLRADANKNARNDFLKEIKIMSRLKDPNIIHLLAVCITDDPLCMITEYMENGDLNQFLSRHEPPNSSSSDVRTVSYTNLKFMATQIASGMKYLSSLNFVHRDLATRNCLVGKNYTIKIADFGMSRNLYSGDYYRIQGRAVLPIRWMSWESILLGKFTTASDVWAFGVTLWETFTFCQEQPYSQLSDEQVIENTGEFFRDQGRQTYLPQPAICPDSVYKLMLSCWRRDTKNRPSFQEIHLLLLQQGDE
Description: LanthaScreen Europium Kinase Binding assay, DDR2. The settings on record: 5 nM DDR2, 10 nM Kinase Tracer 178, 1 h at rt; Ki from IC50 by Cheng-Prusoff; read-out: Ki DDR2. How it is done: (§1) DDR1 and DDR2 binding assays were performed using Life Technologies LanthaScreen™ Europium Kinase Binding assay. […] IC50 values were determined in GraphPad Prism 7.0 software, using 4 parameter model: log (inhibitor) vs. response. IC50 values were converted in Ki using the Cheng-Prusoff equation (Ki-IC50/(1+ [Tracer]/Kd).
(In general: In TR-FRET formats the signal depends on donor and acceptor labels being close together.)

A further test addresses T2, DDR1 (Homo sapiens, UniProt Q08345).
T2 construct: purchased Carna Biosciences
In words: LanthaScreen Europium Kinase Binding assay, DDR1. The settings on record: 5 nM DDR1, 20 nM Kinase Tracer 178, 1 h at rt; Ki from IC50 by Cheng-Prusoff; read-out: Ki DDR1. How it is done:
as §1

T2 sequence (Q08345 19-913): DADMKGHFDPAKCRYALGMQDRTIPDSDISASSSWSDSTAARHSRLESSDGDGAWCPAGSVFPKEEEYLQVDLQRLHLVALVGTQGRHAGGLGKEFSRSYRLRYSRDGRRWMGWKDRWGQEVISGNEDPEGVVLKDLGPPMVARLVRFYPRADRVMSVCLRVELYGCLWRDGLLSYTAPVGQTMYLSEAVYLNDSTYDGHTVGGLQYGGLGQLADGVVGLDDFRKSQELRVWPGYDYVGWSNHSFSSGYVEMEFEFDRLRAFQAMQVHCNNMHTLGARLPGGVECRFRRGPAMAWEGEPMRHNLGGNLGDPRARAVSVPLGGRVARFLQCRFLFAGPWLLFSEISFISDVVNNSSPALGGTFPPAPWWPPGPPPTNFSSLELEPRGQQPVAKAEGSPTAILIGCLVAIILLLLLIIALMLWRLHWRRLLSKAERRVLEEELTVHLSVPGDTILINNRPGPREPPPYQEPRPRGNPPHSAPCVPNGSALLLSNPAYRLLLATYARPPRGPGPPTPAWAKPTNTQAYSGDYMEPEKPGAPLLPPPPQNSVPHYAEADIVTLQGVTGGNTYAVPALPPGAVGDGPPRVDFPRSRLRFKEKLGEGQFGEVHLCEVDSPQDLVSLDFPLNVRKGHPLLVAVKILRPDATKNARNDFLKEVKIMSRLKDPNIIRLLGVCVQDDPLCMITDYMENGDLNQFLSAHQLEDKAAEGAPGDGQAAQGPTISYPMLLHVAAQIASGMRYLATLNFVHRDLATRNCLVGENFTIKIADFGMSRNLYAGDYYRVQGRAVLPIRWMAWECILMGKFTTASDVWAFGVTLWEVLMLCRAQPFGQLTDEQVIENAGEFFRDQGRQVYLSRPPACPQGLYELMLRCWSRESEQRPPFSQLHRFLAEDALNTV

Take `CN(C(=O)Nc1cc(C(F)(F)F)ccn1)C1CC2(C1)CN(C(=O)c1cnn3cc(-c4cnn(C)c4)ccc13)C2` [Example 241, 1-methyl-1-(2-(6-(1-methyl-1H-pyrazol-4-yl)pyrazolo[1,5-a]pyridine-3-carbonyl)-2-azaspiro[3.3]heptan-6-yl)-3-(4-(trifluoromethyl)pyridin-2-yl)urea]: the Ki was 5 to 25 nM at DDR2 and under 5 nM on DDR1.

For `CN(C(=O)Nc1cc(OC(F)(F)F)ccn1)C1CC2(C1)CN(C(=O)c1cnn3cc(-c4cnn(C)c4)ccc13)C2` [Example 242, 1-(2-(6-(1,2-dimethyl-1H-214-pyrazol-4-yl)pyrazolo[1,5-a]pyridine-3-carbonyl)-2-azaspiro[3.3]heptan-6-yl)-1-methyl-3-(4-(trifluoromethoxy)pyridin-2-yl)urea], the Ki at DDR2 is 5 to 25 nM; on DDR1, under 5 nM.

Consider `CN(C(=O)Nc1cncc(C(F)(F)F)c1)C1CC2(C1)CN(C(=O)c1cnn3ccc(N)cc13)C2` [Example 244, 1-(2-(5-aminopyrazolo[1,5-a]pyridine-3-carbonyl)-2-azaspiro[3.3]heptan-6-yl)-1-methyl-3-(5-(trifluoromethyl)pyridin-3-yl)urea], for which the figures for the Ki at DDR2 and at DDR1 were 5 to 25 nM and under 5 nM, respectively.

For the molecule `CN(C(=O)Nc1cncc(C(F)(F)F)c1)C1CC2(C1)CN(C(=O)c1cnn3cc(-c4cncnc4)ccc13)C2` [Example 245, 1-methyl-1-(2-(6-(pyrimidin-5-yl)pyrazolo[1,5-a]pyridine-3-carbonyl)-2-azaspiro[3.3]heptan-6-yl)-3-(5-(trifluoromethyl)pyridin-3-yl)urea], the Ki at DDR2 was 5 to 25 nM; on DDR1, under 5 nM.

In the case of `Cc1ncc(-c2ccc3c(C(=O)N4CC5(CC(N(C)C(=O)Nc6cncc(C(F)(F)F)c6)C5)C4)cnn3c2)cn1` [Example 246, 1-methyl-1-(2-(6-(2-methylpyrimidin-5-yl)pyrazolo[1,5-a]pyridine-3-carbonyl)-2-azaspiro[3.3]heptan-6-yl)-3-(5-(trifluoromethyl)pyridin-3-yl)urea], the Ki on DDR2 was in the range of 25 to 100 nM; at DDR1, 5 to 25 nM.

On to `CN(C(=O)Nc1cccc(C(F)(F)F)c1)C1CC2(C1)CN(C(=O)c1ncnc3[nH]ccc13)C2` [Example 247, 1-(2-(7H-pyrrolo[2,3-d]pyrimidine-4-carbonyl)-2-azaspiro[3.3]heptan-6-yl)-1-methyl-3-(3-(trifluoromethyl)phenyl)urea], for which the Ki at DDR2 is 5 to 25 nM; at DDR1 it was under 5 nM.

On to `CN(C(=O)Nc1cccc(C(F)(F)F)c1)C1CC2(C1)CN(C(=O)c1ccnc3[nH]ccc13)C2` [Example 248, 1-(2-(1H-pyrrolo[2,3-b]pyridine-4-carbonyl)-2-azaspiro[3.3]heptan-6-yl)-1-methyl-3-(3-(trifluoromethyl)phenyl)urea], for which the Ki at DDR2 is 5 to 25 nM; at DDR1 it was under 5 nM.

As to `CN(C(=O)Nc1cncc(C(F)(F)F)c1)C1CC2(C1)CN(C(=O)c1cnn3cc(-c4ccncc4)ccc13)C2` [Example 249, 1-methyl-1-(2-(6-(pyridin-4-yl)pyrazolo[1,5-a]pyridine-3-carbonyl)-2-azaspiro[3.3]heptan-6-yl)-3-(5-(trifluoromethyl)pyridin-3-yl)urea], the Ki on DDR2 was 5 to 25 nM; on DDR1, under 5 nM.

With `COc1ccc2c(C(=O)N3CC4(CC(N(C)C(=O)Nc5cncc(C(F)(F)F)c5)C4)C3)cnn2c1` [Example 250, 1-(2-(6-methoxypyrazolo[1,5-a]pyridine-3-carbonyl)-2-azaspiro[3.3]heptan-6-yl)-1-methyl-3-(5-(trifluoromethyl)pyridin-3-yl)urea], the results for the Ki on DDR2 and on DDR1 were 25 to 100 nM and under 5 nM, respectively.

With `COc1ccn2ncc(C(=O)N3CC4(CC(N(C)C(=O)Nc5cncc(C(F)(F)F)c5)C4)C3)c2c1` [Example 251, 1-(2-(5-methoxypyrazolo[1,5-a]pyridine-3-carbonyl)-2-azaspiro[3.3]heptan-6-yl)-1-methyl-3-(5-(trifluoromethyl)pyridin-3-yl)urea], the Ki is 5 to 25 nM on DDR2 and under 5 nM at DDR1.

As for `CN(C(=O)Nc1cncc(C(F)(F)F)c1)C1CC2(C1)CN(C(=O)c1cnn3ccc(N4CCC(F)(F)C4)cc13)C2` [Example 252, 1-(2-(5-(3,3-difluoropyrrolidin-1-yl)pyrazolo[1,5-a]pyridine-3-carbonyl)-2-azaspiro[3.3]heptan-6-yl)-1-methyl-3-(5-(trifluoromethyl)pyridin-3-yl)urea], the values for the Ki on DDR2 and at DDR1 were 5 to 25 nM and under 5 nM, respectively.

As for `COc1ccc(-c2ccc3c(C(=O)N4CC5(CC(N(C)C(=O)Nc6cncc(C(F)(F)F)c6)C5)C4)cnn3c2)cn1` [Example 253, 1-(2-(6-(6-methoxypyridin-3-yl)pyrazolo[1,5-a]pyridine-3-carbonyl)-2-azaspiro[3.3]heptan-6-yl)-1-methyl-3-(5-(trifluoromethyl)pyridin-3-yl)urea], the Ki on DDR2 is 5 to 25 nM; at DDR1 it was under 5 nM.

With `CN(C(=O)Nc1cc(I)ccn1)C1CC2(C1)CN(C(=O)c1cnn3ccn(C)c13)C2` [Example 254, 3-(4-iodopyridin-2-yl)-1-methyl-1-(2-(1-methyl-1H-imidazo[1,2-b]pyrazole-7-carbonyl)-2-azaspiro[3.3]heptan-6-yl)urea], the Ki was 5 to 25 nM at DDR2 and under 5 nM on DDR1.

On to `CN(C(=O)Nc1cc(C(F)F)ccn1)C1CC2(C1)CN(C(=O)c1cnn3ccsc13)C2` [Example 255, 3-(4-(difluoromethyl)pyridin-2-yl)-1-methyl-1-(2-(pyrazolo[5,1-b]thiazole-7-carbonyl)-2-azaspiro[3.3]heptan-6-yl)urea], for which the results for the Ki on DDR2 and at DDR1 were 5 to 25 nM and under 5 nM, respectively.

As to `COc1cc(C(F)(F)F)cc(NC(=O)N(C)C2CC3(C2)CN(C(=O)c2cnn4ccn(C)c24)C3)n1` [Example 256, 3-(6-methoxy-4-(trifluoromethyl)pyridin-2-yl)-1-methyl-1-(2-(1-methyl-1H-imidazo[1,2-b]pyrazole-7-carbonyl)-2-azaspiro[3.3]heptan-6-yl)urea], the Ki at DDR2 is 5 to 25 nM; at DDR1, under 5 nM.

Take `CN(C(=O)Nc1cc(C(F)(F)F)cc(C(F)(F)F)c1)C1CC2(C1)CN(C(=O)c1cnn3ccn(C)c13)C2` [Example 257, 3-(3,5-bis(trifluoromethyl)phenyl)-1-methyl-1-(2-(1-methyl-1H-imidazo[1,2-b]pyrazole-7-carbonyl)-2-azaspiro[3.3]heptan-6-yl)urea]: the Ki at DDR2 is 5 to 25 nM; on DDR1 it was under 5 nM.

With `Cc1nn(C)cc1-c1ccc2c(C(=O)N3CC4(CC(N(C)C(=O)Nc5cncc(C(F)(F)F)c5)C4)C3)cnn2c1` [Example 258, 1-(2-(6-(1,3-dimethyl-1H-pyrazol-4-yl)pyrazolo[1,5-a]pyridine-3-carbonyl)-2-azaspiro[3.3]heptan-6-yl)-1-methyl-3-(5-(trifluoromethyl)pyridin-3-yl)urea], the Ki is 5 to 25 nM on DDR2 and under 5 nM on DDR1.

As for `CN(C(=O)Nc1cc(C(F)(F)F)cnn1)C1CC2(C1)CN(C(=O)c1cnn3ccccc13)C2` [Example 259, 1-methyl-1-(2-(pyrazolo[1,5-a]pyridine-3-carbonyl)-2-azaspiro[3.3]heptan-6-yl)-3-(5-(trifluoromethyl)pyridazin-3-yl)urea], the Ki is 25 to 100 nM at DDR2 and under 5 nM at DDR1.

Consider `COc1ccc(C(F)(F)F)cc1NC(=O)N(C)C1CC2(C1)CN(C(=O)c1ncnc3[nH]ccc13)C2` [Example 260, 1-(2-(7H-pyrrolo[2,3-d]pyrimidine-4-carbonyl)-2-azaspiro[3.3]heptan-6-yl)-3-(2-methoxy-5-(trifluoromethyl)phenyl)-1-methylurea], for which the Ki is 5 to 25 nM on DDR2 and under 5 nM on DDR1.

For the molecule `Cc1c(-c2ccc3c(C(=O)N4CC5(CC(N(C)C(=O)Nc6cncc(C(F)(F)F)c6)C5)C4)cnn3c2)cnn1C` [Example 261, 1-(2-(6-(1,5-dimethyl-1H-pyrazol-4-yl)pyrazolo[1,5-a]pyridine-3-carbonyl)-2-azaspiro[3.3]heptan-6-yl)-1-methyl-3-(5-(trifluoromethyl)pyridin-3-yl)urea], the Ki on DDR2 was 5 to 25 nM; at DDR1 it was under 5 nM.

`COc1ncc(C(F)(F)F)cc1NC(=O)NC1CC2(C1)CN(C(=O)c1cnn3ccsc13)C2` [Example 262, 1-(2-methoxy-5-(trifluoromethyl)pyridin-3-yl)-3-(2-(pyrazolo[5,1-b]thiazole-7-carbonyl)-2-azaspiro[3.3]heptan-6-yl)urea]: the Ki on DDR2 is 5 to 25 nM; on DDR1, under 5 nM.
